Laboratory results: ChEMBL document CHEMBL1145152, “Design, synthesis, and antifolate activity of new analogues of piritrexim and other diaminopyrimidine dihydrofolate reductase inhibitors with omega-carboxyalkoxy or omega-carboxy-1-alkynyl substitution in the side chain” (J Med Chem, 2005)
pIC50: −log10 of the molar value.

What was measured:
[1] = Concentration causing inhibition of CCRF-CEM human leukemic lymphoblasts growth in 72 hr culture; assay type: functional, cell-based
[2] = Selectivity index measured as IC50(Rat)/IC50(Mycobacterium avium)
[3] = molecular target: T1, Bifunctional dihydrofolate reductase-thymidylate synthase (Toxoplasma gondii, UniProt Q07422)
T1 sequence (Q07422 whole entry): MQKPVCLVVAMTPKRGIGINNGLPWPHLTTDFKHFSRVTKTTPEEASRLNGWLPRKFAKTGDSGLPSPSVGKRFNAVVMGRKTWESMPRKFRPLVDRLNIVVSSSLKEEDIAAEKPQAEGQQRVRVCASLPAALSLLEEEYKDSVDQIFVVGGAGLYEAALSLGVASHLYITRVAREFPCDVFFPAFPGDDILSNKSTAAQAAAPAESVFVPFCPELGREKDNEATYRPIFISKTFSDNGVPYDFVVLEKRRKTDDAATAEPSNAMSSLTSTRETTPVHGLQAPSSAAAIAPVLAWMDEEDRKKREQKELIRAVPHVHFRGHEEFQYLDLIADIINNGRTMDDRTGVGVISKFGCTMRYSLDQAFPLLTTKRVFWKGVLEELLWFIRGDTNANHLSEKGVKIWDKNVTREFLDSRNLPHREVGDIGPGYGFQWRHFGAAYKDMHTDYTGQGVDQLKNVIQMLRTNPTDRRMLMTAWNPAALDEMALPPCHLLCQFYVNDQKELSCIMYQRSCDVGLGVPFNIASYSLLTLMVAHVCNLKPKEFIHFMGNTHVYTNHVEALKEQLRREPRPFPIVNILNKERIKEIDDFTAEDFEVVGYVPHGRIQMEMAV
Description: Inhibitory concentration against Toxoplasma gondii DHFR

Dihydrofolate reductase [4] = molecular target: T2, Dihydrofolate reductase (Rattus norvegicus, UniProt Q920D2)
T2 sequence (Q920D2 whole entry): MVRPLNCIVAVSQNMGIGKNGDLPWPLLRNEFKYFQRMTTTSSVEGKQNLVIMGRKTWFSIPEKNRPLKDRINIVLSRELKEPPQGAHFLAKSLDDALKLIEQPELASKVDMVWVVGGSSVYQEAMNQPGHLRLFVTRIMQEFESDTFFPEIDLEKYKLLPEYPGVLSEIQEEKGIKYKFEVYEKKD
Description: Inhibitory concentration against rat DHFR

Dihydrofolate reductase [5] = molecular target: T3, Dihydrofolate reductase (Mycobacterium avium, UniProt O30463)
T3 sequence (O30463 whole entry): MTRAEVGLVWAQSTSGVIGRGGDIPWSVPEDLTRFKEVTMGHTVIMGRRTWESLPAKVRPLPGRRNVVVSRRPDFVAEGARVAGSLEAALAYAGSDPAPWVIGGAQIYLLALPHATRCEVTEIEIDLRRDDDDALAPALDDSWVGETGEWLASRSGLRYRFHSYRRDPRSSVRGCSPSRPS
Description: Inhibitory concentration against Mycobacterium avium DHFR

Dihydrofolate reductase [6] = molecular target: T4, Dihydrofolate reductase (Pneumocystis carinii, UniProt P16184)
T4 sequence (P16184 whole entry): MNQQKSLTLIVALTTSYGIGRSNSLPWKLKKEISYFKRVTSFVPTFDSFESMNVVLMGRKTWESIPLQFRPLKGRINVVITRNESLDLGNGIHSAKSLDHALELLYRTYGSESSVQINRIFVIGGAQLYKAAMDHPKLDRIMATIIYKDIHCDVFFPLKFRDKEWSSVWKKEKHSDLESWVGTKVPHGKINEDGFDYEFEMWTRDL
Description: Inhibitory concentration against Pneumocystis carinii DHFR

[7] = Concentration causing inhibition of CCRF-CEM human leukemic lymphoblasts growth in a 72 hr culture; assay type: functional, cell-based

| SMILES | pIC50 [1] | Selectivity index [2] | pIC50 [3] | pIC50 (Dihydrofolate reductase [4]) | pIC50 (Dihydrofolate reductase [5]) | pIC50 (Dihydrofolate reductase [6]) | pIC50 [7] |
| --- | --- | --- | --- | --- | --- | --- | --- |
| COc1ccc(C#CCCCC(=O)O)c(Cc2cnc3nc(N)nc(N)c3c2C)c1 | 5.55 | 18 | 8.24 | 7.62 | 8.89 | 8.92 |  |
| Nc1nc(N)c2nc(CN3c4ccccc4C=Cc4c(C#CCCCC(=O)O)cccc43)cnc2n1 |  | 210 | 7.68 | 5.89 | 8.20 | 7.92 |  |
| CCOC(=O)CCCOc1ccc(OC)c(Cc2cnc3nc(N)nc(N)c3c2C)c1 |  | 2.3 | 8.47 | 8.38 | 8.74 | 8.19 |  |
| COc1ccc(I)cc1Cc1cnc2nc(N)nc(N)c2c1C |  | 5.4 | 8.39 | 8.30 | 9.04 | 8.24 |  |
| COc1ccc(C#CCCC(=O)O)cc1Cc1cnc2nc(N)nc(N)c2c1C |  | 5.6 | 9.34 | 9.49 | 10.24 | 10.01 |  |
| COc1ccc(OC)c(Cc2cnc3nc(N)nc(N)c3c2C)c1 [PIRITREXIM] |  |  |  |  |  |  | 7.89 |
| COc1ccc(C#CCCC(=O)O)c(Cc2cnc3nc(N)nc(N)c3c2C)c1 |  | 96 | 8.39 | 7.26 | 9.24 | 9.19 |  |
| Nc1nc(N)c2nc(CN3c4ccccc4C=Cc4c(C#CCCC(=O)O)cccc43)cnc2n1 |  | 190 | 7.11 | 6.25 | 8.54 | 6.64 |  |
| COc1ccc(I)c(Cc2cnc3nc(N)nc(N)c3c2C)c1 |  | 2.2 | 8.24 | 8.40 | 8.74 | 8.42 |  |
| COc1ccc(OCCCCCC(=O)O)cc1Cc1cnc2nc(N)nc(N)c2c1C |  | 5.9 | 8.70 | 8.70 | 9.46 | 8.89 |  |
| COc1ccc(OCCCC(=O)O)cc1Cc1cnc2nc(N)nc(N)c2c1C | 5.43 | 8.5 | 8.72 | 8.66 | 9.59 | 9.37 |  |
| COc1ccc(C#CCCCC(=O)O)cc1Cc1cnc2nc(N)nc(N)c2c1C |  | 5.6 | 8.37 | 8.24 | 9.00 | 8.85 | 5.21 |
| COc1ccc(OCCCCC(=O)O)cc1Cc1cnc2nc(N)nc(N)c2c1C |  | 7.5 | 8.64 | 8.66 | 9.54 | 9.29 |  |
| CCOC(=O)CCCCOc1ccc(OC)c(Cc2cnc3nc(N)nc(N)c3c2C)c1 |  | 1.5 | 7.96 | 7.85 | 8.03 | 7.55 |  |
| CCOC(=O)CCCOc1ccc(OC)cc1Cc1cnc2nc(N)nc(N)c2c1C |  | 17 | 8.00 | 7.03 | 8.25 | 7.08 |  |
| CCOC(=O)CCCCCOc1ccc(OC)c(Cc2cnc3nc(N)nc(N)c3c2C)c1 |  | 1.8 | 7.89 | 7.68 | 7.92 | 7.46 |  |
| COc1ccc(OCc2ccccc2)c(Cc2cnc3nc(N)nc(N)c3c2C)c1 |  | 20 | 7.80 | 6.77 | 8.07 | 7.02 |  |
| COc1ccc(C#CCCCCC(=O)O)cc1Cc1cnc2nc(N)nc(N)c2c1C |  | 5.8 | 8.49 | 8.40 | 9.16 | 8.74 |  |
| COc1ccc(OCCCC(=O)O)c(Cc2cnc3nc(N)nc(N)c3c2C)c1 | 5.28 | 28 | 8.64 | 8.04 | 9.49 | 9.77 |  |
| COc1cc(Cc2cnc(N)nc2N)cc(C#CCCC(=O)O)c1Br |  | 1300 | 7.82 | 6.20 | 9.33 | 7.15 |  |
